One assay concerns the target T1, PLU1 (KDM5B) (Homo sapiens, UniProt Q9UGL1).
T1 construct: 1-809; host or cells: E. coli
T1 sequence (Q9UGL1 1-809): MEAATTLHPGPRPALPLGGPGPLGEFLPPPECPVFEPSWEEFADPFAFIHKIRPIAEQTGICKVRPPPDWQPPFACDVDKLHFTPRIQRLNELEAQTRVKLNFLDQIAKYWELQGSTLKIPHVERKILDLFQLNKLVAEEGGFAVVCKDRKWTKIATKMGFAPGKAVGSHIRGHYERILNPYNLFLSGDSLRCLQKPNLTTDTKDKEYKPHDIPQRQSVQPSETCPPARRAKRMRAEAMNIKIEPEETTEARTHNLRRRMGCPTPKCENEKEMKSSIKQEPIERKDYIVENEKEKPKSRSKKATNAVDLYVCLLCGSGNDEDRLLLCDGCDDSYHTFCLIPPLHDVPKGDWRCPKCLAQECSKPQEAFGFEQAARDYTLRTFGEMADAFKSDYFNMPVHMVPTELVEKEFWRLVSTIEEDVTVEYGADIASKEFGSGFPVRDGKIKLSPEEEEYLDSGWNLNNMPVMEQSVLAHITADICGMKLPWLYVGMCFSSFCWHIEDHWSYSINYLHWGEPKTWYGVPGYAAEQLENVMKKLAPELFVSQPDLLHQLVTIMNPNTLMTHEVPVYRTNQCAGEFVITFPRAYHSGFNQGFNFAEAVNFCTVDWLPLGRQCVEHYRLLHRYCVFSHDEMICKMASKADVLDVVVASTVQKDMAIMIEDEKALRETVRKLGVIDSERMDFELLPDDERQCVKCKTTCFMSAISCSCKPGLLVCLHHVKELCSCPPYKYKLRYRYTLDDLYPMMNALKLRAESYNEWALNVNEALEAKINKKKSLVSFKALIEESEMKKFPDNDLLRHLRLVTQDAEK
As to the kind of experiment: Histone lysine demethylase AlphaLISA assay, PLU1. The note with it: substrate H3K4M3B. Type of assay: biochemical. In a few lines:
(§1)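 Each enzyme was preincubated 10 min, then 10 min with compound (added in 3% DMSO solution in enzyme buffer) before substrate addition and reaction at room temperature. Demethylation was detected by AlphaLISA: acceptor beads 60 min in the dark, then streptavidin donor beads, incubated and read; IC50 values determined.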
T3 sequence (O15550 919-1401): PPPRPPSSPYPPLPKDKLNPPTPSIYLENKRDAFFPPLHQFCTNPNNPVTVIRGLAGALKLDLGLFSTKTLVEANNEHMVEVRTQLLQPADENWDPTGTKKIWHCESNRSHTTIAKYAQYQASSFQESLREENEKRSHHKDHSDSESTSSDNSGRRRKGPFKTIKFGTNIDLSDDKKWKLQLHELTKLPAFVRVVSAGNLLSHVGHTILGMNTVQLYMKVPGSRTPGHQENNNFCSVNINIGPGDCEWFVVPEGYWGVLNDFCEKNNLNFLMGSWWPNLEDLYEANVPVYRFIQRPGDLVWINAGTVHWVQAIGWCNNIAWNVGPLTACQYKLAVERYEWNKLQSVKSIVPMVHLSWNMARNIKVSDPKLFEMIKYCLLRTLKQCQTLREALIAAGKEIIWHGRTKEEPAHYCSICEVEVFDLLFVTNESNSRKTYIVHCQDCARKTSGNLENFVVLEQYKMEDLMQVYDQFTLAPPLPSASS
Turning to “{4-[(ethoxycarbonyl)amino]phenyl}methyl 2-({[4-(diethylamino)butyl]amino}methyl)pyridine-4-carboxylate [#55]”, the IC50 is below 100 nM.

For a further assay, the target named is T2, GASC1 (KDM4C, JMJD2C) (Homo sapiens, UniProt Q9H3R0).
T2 construct: 1-349; host or cells: E. coli
T2 sequence (Q9H3R0 1-349): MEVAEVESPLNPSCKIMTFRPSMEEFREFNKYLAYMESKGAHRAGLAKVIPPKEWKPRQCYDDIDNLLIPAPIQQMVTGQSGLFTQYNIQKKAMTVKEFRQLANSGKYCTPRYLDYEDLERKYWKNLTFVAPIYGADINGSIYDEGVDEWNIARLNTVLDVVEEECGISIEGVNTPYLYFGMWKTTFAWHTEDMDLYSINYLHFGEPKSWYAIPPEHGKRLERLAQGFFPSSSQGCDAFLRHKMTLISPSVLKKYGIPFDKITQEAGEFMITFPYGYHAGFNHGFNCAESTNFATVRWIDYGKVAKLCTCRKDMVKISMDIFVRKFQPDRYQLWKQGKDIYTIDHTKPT
The assay can be described thus: Histone lysine demethylase AlphaLISA assay, GASC1. It counts as biochemical. The note with it: substrate BK9M3. An outline of the steps: as §1
Compound “{4-[(ethoxycarbonyl)amino]phenyl}methyl 2-({[4-(diethylamino)butyl]amino}methyl)pyridine-4-carboxylate [#55]” yielded an IC50 of 100 to 1000 nM.

Another assay concerns the target T3, UTX (KDM6A) (Homo sapiens, UniProt O15550).
T3 construct: 919-1401; host or cells: E. coli
The assay can be described thus: Histone lysine demethylase AlphaLISA assay, UTX. It counts as biochemical. The note with it: substrate BK27M3. In a few lines: as §1
With “{4-[(ethoxycarbonyl)amino]phenyl}methyl 2-({[4-(diethylamino)butyl]amino}methyl)pyridine-4-carboxylate [#55]”, the IC50 is at least 1000 nM.

Another assay deals with MCF7 cells. As to the kind of experiment: MCF7 cell proliferation assay (ATPlite). Type of assay: cell-based. The note with it: Homo sapiens, 120 hours. The procedure:
MCF7 cells were seeded at 1250 cells/well in 50 μl medium/well in black 96 well plates. Cells were incubated for 24 hours before addition of compound. Compounds were diluted in complete medium (50 μl/well) and added to the plates in duplicates. The total volume of medium in the wells was 100 μl, and the final concentration of DMSO 0.5%. Complete medium used was DMEM with GlutaMAX containing 10% FBS and pen/strep.
120 hours after addition of compounds, the plates were harvested and analyzed by ATPlite 1 Step (Perkin Elmer, cat no 6016739) according to the manufactures recommendation. Briefly, 100 μl ATP lite solution was added to each well, plates were vortexed at 700 rpm 2 minutes, followed by 20 minutes incubation in the dark, and then analyzed for luminescence on EnSpire 2300 Mulitilabel reader (Perkin Elmer). EC50 values were calculated using GraphPad Prism 6.
In turn, `O=C(O)c1ccnc(CNCC2CC2)c1` [drawing 257, 2-{[(cyclopropylmethyl)amino]methyl}pyridine-4-carboxylic acid] displayed an EC50 of 1000 to 50000 nM.
Same read-out and setting: next, `CSCCNCc1cc(C(=O)O)ccn1` [drawing 258, 2-({[2-(methylsulfanyl)ethyl]amino}methyl)pyridine-4-carboxylic acid]: 1000 to 50000 nM; `Cn1c(CNCc2cc(C(=O)O)ccn2)nc2ccccc21` [drawing 259]: 1000 to 50000 nM.
The same measure, in the same setting: the result for `C=CCN(CC=C)C(=O)CNCc1cc(C(=O)O)ccn1` [drawing 260, 2-[({[bis(prop-2-en-1-yl)carbamoyl]methyl}amino)methyl]pyridine-4-carboxylic acid] reads 1000 to 50000 nM.
On the same count and under the same terms, next, `CN(CCCc1nccn1C)C(=O)CNCc1cc(C(=O)O)ccn1` [drawing 261, 2-{[({methyl[3-(1-methyl-1H-imidazol-2-yl)propyl]carbamoyl}methyl)amino]methyl} pyridine-4-carboxylic acid]: 1000 to 50000 nM.
`COc1ccccc1CN1CCC(NC(=O)CNCc2cc(C(=O)O)ccn2)CC1` [drawing 262] had an EC50 of 1000 to 50000 nM.
On to `CCN(CCC#N)C(=O)CNCc1cc(C(=O)O)ccn1` [drawing 263, 2-[({[(2-cyanoethyl)(ethyl)carbamoyl]methyl}amino)methyl]pyridine-4-carboxylic acid], for which the EC50 fell in the range of 1000 to 50000 nM.
Still for that read-out and setting: the result for `CN(CCCNCc1cc(C(=O)O)ccn1)Cc1ccccc1F` [drawing 264, 2-{[(3-{[(2-fluorophenyl)methyl](methyl)amino}propyl)amino]methyl}pyridine-4-carboxylic acid] reads 1000 to 50000 nM; that for `O=C(O)c1ccnc(CNCCCN2CCC(Cc3ccccc3)CC2)c1` [drawing 265, 2-({[3-(4-benzylpiperidin-1-yl)propyl]amino}methyl)pyridine-4-carboxylic acid], 1000 to 50000 nM.
Same read-out and setting: the result for `O=C(O)c1ccnc(CNCCCNCCOc2ccccc2)c1` [drawing 266, 2-[({3-[(2-phenoxyethyl)amino]propyl}amino)methyl] pyridine-4-carboxylic acid] reads 1000 to 50000 nM; that for `CN(CCCCN(Cc1ccccc1)C1CC1)C(=O)CNCc1cc(C(=O)O)ccn1` [drawing 267, 2-({[({4-[benzyl(cyclopropyl)amino]butyl)(methyl)carbamoyl)methyl]amino}methyl)pyridine-4-carboxylic acid], above 50000 nM; that for `CCN(CCN(C)C)C(=O)CNCc1cc(C(=O)O)ccn1` [drawing 268, 2-{[({[2-(dimethylamino)ethyl](ethyl)carbamoyl}methyl)amino]methyl}pyridine-4-carboxylic acid], 1000 to 50000 nM.
Still for that read-out and setting: next, `CCN(CC)CCCCNCc1cc(C(=O)Oc2ccc(OC)cc2)ccn1` [drawing 269, 4-methoxyphenyl 2-({[4-(diethylamino)butyl]amino}methyl)pyridine-4-carboxylate]: below 1000 nM.
Turning to `CCOC(=O)c1ccccc1OC(=O)c1ccnc(CNCCCCN(CC)CC)c1` [drawing 270, 2-(ethoxycarbonyl)phenyl 2-({[4-(diethylamino)butyl]amino}methyl)pyridine-4-carboxylate], the EC50 is below 1000 nM.
`CCN(CC)CCCCNCc1cc(C(=O)OCCCN(C)C)ccn1` [drawing 271, 3-(dimethylamino)propyl 2-({[4-(diethylamino)butyl]amino}methyl)pyridine-4-carboxylate] gave an EC50 of 1000 to 50000 nM.
Same read-out and setting: the result for `CCOC(=O)Nc1ccc(COC(=O)c2ccnc(CNCCCCN(CC)CC)c2)cc1` [drawing 272, {4-[(ethoxycarbonyl)amino]phenyl}methyl 2-({[4-(diethylamino)butyl]amino}methyl)pyridine-4-carboxylate] reads 1000 to 50000 nM.
Same read-out and setting: next, `CCN(CC)CCCCNCc1cc(C(=O)Oc2c(OC)cccc2OC)ccn1` [drawing 273, 2,6-dimethoxyphenyl 2-({[4-(diethylamino)butyl]amino}methyl)pyridine-4-carboxylate]: below 1000 nM; `CCN(CC)CCCCNCc1cc(C(=O)Oc2c(C)cccc2C)ccn1` [drawing 274, 2,6-dimethylphenyl 2-({[4-(diethylamino)butyl]amino}methyl)pyridine-4-carboxylate]: below 1000 nM; `CCN(CCN(C)C)C(=O)CNCc1cc(C(=O)Oc2ccc(OC)cc2)ccn1` [drawing 275, 4-methoxyphenyl 2-{[({[2-(dimethylamino)ethyl](ethyl)carbamoyl}methyl)amino]methyl}pyridine-4-carboxylate]: 1000 to 50000 nM.
Still for that read-out and setting: the result for `CCOC(=O)c1ccccc1OC(=O)c1ccnc(CNCC(=O)N(CC)CCN(C)C)c1` [drawing 276, 2-(ethoxycarbonyl)phenyl 2-{[({[2-(dimethylamino)ethyl](ethyl)carbamoyl}methyl)amino]methyl}pyridine-4-carboxylate] reads 1000 to 50000 nM; that for `CCOC(=O)N(C)c1ccc(COC(=O)c2ccnc(CNCCCCN(CC)CC)c2)cc1` [drawing 277, {4-[(ethoxycarbonyl)(methyl)amino]phenyl}methyl 2-({[4-(diethylamino)butyl]amino}methyl)pyridine-4-carboxylate], below 1000 nM.
Consider `CCN(CCN(C)C)C(=O)CNCc1cc(C(=O)Oc2ccc(C(C)(C)C)cc2)ccn1` [drawing 278, 4-tert-butylphenyl 2-{[({[2-(dimethylamino)ethyl](ethyl)carbamoyl}methyl)amino]methyl}pyridine-4-carboxylate], for which the EC50 was below 1000 nM.
Compound `CCN(CCN(C)C)C(=O)CNCc1cc(C(=O)OC(C)CC(C)=O)ccn1` (stereo not drawn) [drawing 279, 4-oxopentan-2-yl 2-{[({[2-(dimethylamino)ethyl](ethyl)carbamoyl}methyl)amino]methyl}pyridine-4-carboxylate] gave an EC50 below 1000 nM.
Consider `CCN(CCN(C)C)C(=O)CNCc1cc(C(=O)OC(C)CCNC(=O)C(F)(F)F)ccn1` (stereo not drawn) [drawing 280, 4-(trifluoroacetamido)butan-2-yl 2-{[({[2-(dimethylamino)ethyl](ethyl)carbamoyl}methyl)amino]methyl}pyridine-4-carboxylate], for which the EC50 is below 1000 nM.
The same measure, in the same setting: the result for `CCN(CCN(C)C)C(=O)CNCc1cc(C(=O)OC(C)CCN(C)C(=O)C(F)(F)F)ccn1` (stereo not drawn) [drawing 281, 4-(2,2,2-trifluoro-N-methylacetamido)butn-2-yl 2-{[({[2-(dimethylamino)ethyl](ethyl)carbamoyl}methyl)amino]methyl}pyridine-4-carboxylate] reads below 1000 nM; that for `CCOC(=O)c1ccnc(CNCC(=O)N(CC)CCN(C)C)c1` [drawing 282, ethyl 2-{[({[2-(dimethylamino)ethyl](ethyl)carbamoyl}methyl)amino]methyl}pyridine-4-carboxylate], below 1000 nM; that for `C=CC(CCNC(=O)C(F)(F)F)OC(=O)c1ccnc(CNCC(=O)N(CC)CCN(C)C)c1` (stereo not drawn) [drawing 283, 5-(trifluoroacetamido)pent-1-en-3-yl 2-{[({[2-(dimethylamino)ethyl](ethyl)carbamoyl}methyl)amino]methyl}pyridine-4-carboxylate], below 1000 nM.

Source of the values: patent US10221139B2, “Inhibitors of histone demethylases” (Gilead Sciences, Inc., priority 2012, dated 2019).
